{"source": "patent US20200368247A1", "about": "“CENICRIVIROC FOR THE TREATMENT OF FIBROSIS” (Tobira Therapeutics, Inc., priority 2014, published 2020)", "assay": "Study 202 ECG abnormalities", "type": "in vivo, human", "conditions": "All CVC (N = 115); EFV (N = 28), through Week 48"}
{"smiles": "O=C1Nc2ccc(Cl)cc2[C@@](C#CC2CC2)(C(F)(F)F)O1", "note": "[EFV, efavirenz, reference compound]", "values": [{"measurement": "HR Abnormally high (120 bpm ≤ abnormally high)", "result": "0 n (%)"}, {"measurement": "HR Abnormally low (≤ 50 bpm)", "result": "0 n (%)"}, {"measurement": "PR Abnormally high (210 ms ≤ abnormally high)", "result": "1 (4%) n (%)"}, {"measurement": "QRS Abnormally high (120 ms ≤ abnormally high)", "result": "0 n (%)"}, {"measurement": "QRS Abnormally low (≤ 50 ms)", "result": "0 n (%)"}, {"measurement": "QTcB interval Borderline (450 ms ≤ borderline ≤ 480 ms)", "result": "3 (11%) n (%)"}, {"measurement": "QTcB interval Increase by >30-60 ms", "result": "4 (14%) n (%)"}, {"measurement": "QTcB interval Increase by >60 ms", "result": "0 n (%)"}, {"measurement": "QTcB interval Pathologically prolonged (> 500 ms)", "result": "0 n (%)"}, {"measurement": "QTcB interval Prolonged (480 ms < prolonged ≤ 500 ms)", "result": "0 n (%)"}, {"measurement": "QTcF interval Borderline (450 ms ≤ borderline ≤ 480 ms)", "result": "0 n (%)"}, {"measurement": "QTcF interval Increase by >30-60 ms", "result": "4 (14%) n (%)"}, {"measurement": "QTcF interval Increase by >60 ms", "result": "0 n (%)"}, {"measurement": "QTcF interval Pathologically prolonged (> 500 ms)", "result": "0 n (%)"}, {"measurement": "QTcF interval Prolonged (480 ms < prolonged ≤ 500 ms)", "result": "0 n (%)"}]}
